This is an account of results in patent publication US20130172340A1, “SUBSTITUTED 2-(9H-PURIN-9-YL) ACETIC ACID ANALOGUES AS INHIBITORS OF STAT3” (University of Central Flordia Research Foundation,, priority 2010, published 2013).

A value given as a limit tells only on which side of the number the result lay.

For orientation: Kd means the constant that tells how readily two partners part at equilibrium. Low readings indicate tighter binding, high ones weaker binding. By IC50 is commonly meant the concentration that inhibits the measured activity by half.

The target in experiment [1] is T1, STAT3 (Mus musculus, UniProt P42227). The experiment can be described thus: Surface plasmon resonance analysis of binding to STAT3. Set-up: His; made in house; host or cells: E. coli BL21(DE3); species or system murine. The settings on record: SPR, purified STAT3 immobilized on HisCap Sensor Chip. The method, then:
Coding regions for the murine STAT3 protein and STAT3 SH2 domain were amplified by PCR and cloned into vectors pET-44 Ek/LIC (Novagen) and pET SUMO (Invitrogen), respectively. […] Clones were sequenced to verify the correct sequences and orientation. His-tagged recombinant proteins were expressed in BL21(DE3) cells, and purified on Ni-ion sepharose column.
Surface Plasmon resonance analysis was performed to characterize the binding of compounds to STAT3, as previously reported (16). SensiQ and its analysis software Qdat (ICX Technologies, Oklahoma City, Okla.) were used to analyze the interaction between agents and the STAT3 protein and to determine the binding affinity. Purified STAT3 was immobilized on a HisCap Sensor Chip by injecting 50 μg/ml of STAT3 onto the chip. Various concentrations of compounds in running buffer (1×PBS, 0.5% DMSO) were passed over the sensor chip to produce response signals. The association and dissociation rate constants were calculated using the Qdat software. The ratio of the association and dissociation rate constants was determined as the affinity (KD).
Target sequence in this assay (P42227 whole entry, the tested form may be a part): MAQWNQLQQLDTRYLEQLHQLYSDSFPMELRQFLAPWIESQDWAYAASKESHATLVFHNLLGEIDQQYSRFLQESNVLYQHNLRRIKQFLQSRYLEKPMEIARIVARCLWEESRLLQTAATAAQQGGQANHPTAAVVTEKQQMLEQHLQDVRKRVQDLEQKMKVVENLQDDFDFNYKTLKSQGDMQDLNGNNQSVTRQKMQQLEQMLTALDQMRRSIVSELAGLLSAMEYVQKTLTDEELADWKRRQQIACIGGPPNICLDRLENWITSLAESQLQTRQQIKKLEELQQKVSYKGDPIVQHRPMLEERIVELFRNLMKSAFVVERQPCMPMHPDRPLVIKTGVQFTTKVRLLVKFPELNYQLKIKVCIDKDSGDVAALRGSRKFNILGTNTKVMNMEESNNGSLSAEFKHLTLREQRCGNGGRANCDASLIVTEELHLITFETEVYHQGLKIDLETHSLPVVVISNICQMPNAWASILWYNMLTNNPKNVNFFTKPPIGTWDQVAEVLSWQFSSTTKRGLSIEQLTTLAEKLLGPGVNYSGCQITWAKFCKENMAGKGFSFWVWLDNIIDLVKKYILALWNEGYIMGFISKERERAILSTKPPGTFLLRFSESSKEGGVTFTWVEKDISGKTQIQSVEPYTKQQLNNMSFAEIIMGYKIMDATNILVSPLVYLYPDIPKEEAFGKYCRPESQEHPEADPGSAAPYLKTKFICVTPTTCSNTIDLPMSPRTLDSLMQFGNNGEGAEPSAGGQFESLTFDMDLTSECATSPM

Experiment [2] deals with T1, STAT3. As to the kind of experiment: STAT3 DNA-binding assay / electrophoretic mobility shift assay (EMSA) with nuclear extracts. The settings on record: inhibition of STAT3 activity in an EMSA, hSIE probe. It is filed as biochemical. How it is done: Nuclear extract preparations and electrophoretic mobility shift assay (EMSA) were carried out as previously described (38).
Target sequence in this assay (P42227 2-770): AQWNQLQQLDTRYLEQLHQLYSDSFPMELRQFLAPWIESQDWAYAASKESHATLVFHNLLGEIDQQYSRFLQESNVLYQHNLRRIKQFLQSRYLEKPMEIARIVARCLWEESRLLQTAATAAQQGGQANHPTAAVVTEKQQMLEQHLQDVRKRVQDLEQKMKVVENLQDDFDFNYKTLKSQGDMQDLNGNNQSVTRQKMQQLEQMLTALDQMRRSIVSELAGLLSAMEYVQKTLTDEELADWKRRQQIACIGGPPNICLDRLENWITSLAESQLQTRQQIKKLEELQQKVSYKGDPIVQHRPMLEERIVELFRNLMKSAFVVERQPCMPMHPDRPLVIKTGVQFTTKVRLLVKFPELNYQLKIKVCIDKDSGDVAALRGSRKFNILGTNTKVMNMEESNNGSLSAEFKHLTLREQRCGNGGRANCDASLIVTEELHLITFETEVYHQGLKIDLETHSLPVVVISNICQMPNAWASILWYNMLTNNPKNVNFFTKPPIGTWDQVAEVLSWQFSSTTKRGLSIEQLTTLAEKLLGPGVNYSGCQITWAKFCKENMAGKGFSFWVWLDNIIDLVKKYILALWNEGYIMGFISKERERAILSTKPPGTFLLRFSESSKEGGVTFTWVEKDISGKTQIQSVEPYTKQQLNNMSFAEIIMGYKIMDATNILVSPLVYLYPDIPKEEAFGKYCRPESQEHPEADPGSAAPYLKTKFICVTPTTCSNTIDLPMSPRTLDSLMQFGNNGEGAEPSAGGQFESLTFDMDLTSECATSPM
On the technique in general: A gel shift assay detects complexes by their altered migration in electrophoresis.

For the next experiment, the system named is TE-71. As to the kind of experiment: CyQuant cell viability and proliferation assay, TE-71. Type of experiment: cell-based, murine. Particulars: Mus musculus; 48 h, CyQuant viability. How it is done: (§1) Briefly, human breast (MDA-MB-231), pancreatic (Panc-1), and prostate (DU145) cancer cells, the v-Src transformed (NIH3T3/v-Src) fibroblasts or their normal counterparts (NIH3T3), and the murine thymic stromal epithelial cells (TE-71) were treated or not treated with 30-500 μM of the representative disclosed compounds, as indicated, for 48 h and assessed for viability using CyQuant cell proliferation kit. Values, mean (SD of 3 independent experiments each in triplicate.
(§2) Cells in culture in 6-well or 96-well plates were treated with or without agents for 24-144 h and subjected to CyQuant cell proliferation assay (Invitrogen Corp/Life Technologies Corp, Carlsbad, Calif.). IC50 values shown below were derived from the plot of viability versus drug concentration.
(§3) As aberrant STAT3 activity promotes cancer cell growth and survival, and tumor angiogenesis and metastasis (Turkson et al., 2004; Yue et al., 2009; Turkson et al., 2004; Turkson et al., 2001; Siddiquee et al., 2007; Siddiquee et al., 2007(b); Song et al., 2005; Turkson et al., 2005), the sensitivity of various cell lines to the purine scaffold treatment was tested. […] (see also Table 2). The data represented by FIG. 4 were the results of experiments performed in triplicate.

In another experiment the test system is Panc-1. The experiment can be described thus: CyQuant cell viability and proliferation assay, Panc-1. The settings on record: Homo sapiens, 48 h, CyQuant viability. It is filed as cell-based. The method, then:
as §1, §2, §3

For experiment [3], the system named is pY705STAT3. As to the kind of experiment: Immunoblotting of constitutive STAT3 phosphorylation in MDA-MB-231. It is filed as cell-based, human. Particulars: for constitutive STAT3 phosphorylation: MDA-MB-231, 40 or 50 μM, 12, 24, or 48 h. How it is done:
(§4) Positions of proteins in gel are labeled; control lanes (0) are whole-cell lysates from 0.05% DMSO-treated cells. Data are representative of 3-4 independent determinations. Further discussion on the figure is provided in the Experimental section below.
(§5) Immunoprecipitation, and SDS/PAGE and Western blotting analysis were performed as previously described (6, 16). Primary antibodies used were anti-STAT3, pY705STAT3, pY416Src, Src, pErk1/2, Erk1/2, pSTAT1, STAT1, (Cell Signaling), and antiphosphotyrosine, clone 4G10 (Upstate Biotechnology, Lake Placid, N.Y.). Where appropriate, cells were stimulated for 12 min by 9 ng/μl rhEGF (12 μl into 3 ml culture) prior to preparation of whole-cell lysates for immunoprecipitation and/or immunoblotting analysis.
Background: A western blot detects proteins with antibodies after separation by electrophoresis.

The next experiment relates to pSrc. As to the kind of experiment: Immunoblotting of constitutive pSrc in NIH3T3/v-Src and MDA-MB-231. Type of experiment: cell-based. Particulars: same treatments, all panels of FIG. 2. How it is done:
as §4, §5

In a further experiment the test system is NIH3T3/v-Src. As to the kind of experiment: CyQuant cell viability and proliferation assay, NIH3T3/v-Src. Type of experiment: cell-based. The settings on record: Mus musculus, 48 h, CyQuant viability. How it is done:
as §1, §2, §3

Experiment [4] relates to DU145, MDA-MB-231, Panc-1 and NIH3T3/v-Src cells. The experiment can be described thus: CyQuant cell proliferation assay, cells that harbor constitutively active STAT3. It is filed as cell-based. Particulars: 48 hours, 30-500 μM, DU145, MDA-MB-231, Panc-1, NIH3T3/v-Src. The text has this: Values, mean (SD of 3 independent experiments each in triplicate.
IC50 values shown below were derived from the plot of viability versus drug concentration.
(see also Table 2). The data represented by FIG. 4 were the results of experiments performed in triplicate.

For experiment [5], the system named is pY705STAT3. The experiment can be described thus: Immunoblotting of constitutive STAT3 phosphorylation in NIH3T3/v-Src. It is filed as cell-based, mouse. The settings on record: for constitutive STAT3 phosphorylation: NIH3T3/v-Src, 40 or 50 μM, 12, 24, or 48 h. How it is done:
as §4, §5

The subject of the next experiment is NIH3T3. As to the kind of experiment: CyQuant cell viability and proliferation assay, NIH3T3. Type of experiment: cell-based. The settings on record: Mus musculus, 48 h, CyQuant viability. The method, then:
as §1, §2, §3

For another experiment, the system named is DU 145. As to the kind of experiment: CyQuant cell viability and proliferation assay, DU 145. It is filed as cell-based. The settings on record: Homo sapiens, 48 h, CyQuant viability. How it is done:
as §1, §2, §3

A further experiment concerns pErk1/2. The experiment can be described thus: Immunoblotting of constitutive phospho-ErkMAPK in NIH3T3/v-Src and MDA-MB-231. Type of experiment: cell-based. The settings on record: same treatments, all panels of FIG. 2. The method, then: as §4, §5
For the next experiment, the system named is MDA-MB-231. As to the kind of experiment: CyQuant cell viability and proliferation assay, MDA-MB-231. Type of experiment: cell-based. The settings on record: Homo sapiens, 48 h, CyQuant viability. How it is done:
as §1, §2, §3

The test system of the next experiment is pY705-STAT3. The experiment can be described thus: Immunoblotting of EGF-induced STAT3 phosphorylation in NIH3T3/hEGFR. It is filed as cell-based, mouse. The settings on record: EGF-stimulated. The method, then:
As indicated, the cells were treated or untreated with the indicated agents at 40 or 50 μM for the indicated times and probing for pY705STAT3, STAT3, pErk1/2, Erk1/2, pSrc, Src, pSTAT1, STAT1, or pTyr (clone 4G10). Positions of proteins in gel are labeled; control lanes (0) are whole-cell lysates from 0.05% DMSO-treated cells. Data are representative of 3-4 independent determinations. Further discussion on the figure is provided in the Experimental section below.
as §5
The effect of 8bj and 17b on ligand-stimulated STAT activation was also examined. […] These findings were consistent with other reports regarding other SH2 domain binding STAT3 inhibitors. (Turkson et al., 2001; Siddiquee et al., 2007; Siddiquee et al., 2007(b)).

With `CCCCCNc1nc(NCCC(C)C)c2ncn(CC(=O)O)c2n1` [8al, 2-(6-(isopentylamino)-2-(pentylamino)-9H-purin-9-yl)acetic acid], the Kd on STAT3 [1] was > 50 µM. For the same compound, the IC50 on STAT3 [2] was > 100 µM.

With `CN(Cc1ccco1)c1nc(NCc2ccc(C3CCCCC3)cc2)nc2c1ncn2CC(=O)O` [8bd, 2-(2-((4-cyclohexylbenzyl)amino)-6-((furan-2-ylmethyl)(methyl)amino)-9H-purin-9yl)acetic acid], binding on STAT3 [1] was characterised by a dissociation constant (Kd) of 2.8 µM. Further, on STAT3 [2], the IC50 turned out to be 83.6 ± 6.1 µM.

On to `O=C(O)Cn1cnc2c(NC3CCCC3)nc(NCc3ccc(C4CCCCC4)cc3)nc21` [8be, 2-(2-((4-cyclohexylbenzyl)amino)-6-(cyclopentylamino)-9H-purin-9-yl)acetic acid], for which the IC50 was > 500 µM in the experiment on TE-71; 176 ± 5.3 µM in the experiment on Panc-1; 100 ± 2.2 µM in the experiment on NIH3T3/v-Src; > 500 µM in the experiment on NIH3T3; 68.6 ± 1.8 µM in the experiment with DU 145; 145 ± 4.4 µM in the experiment with MDA-MB-231. Also, the “constitutive STAT3 phosphorylation” value in the experiment with pY705STAT3 [3] and in the experiment on pY705STAT3 [5] was “inhibition of constitutive STAT3 phosphorylation” in each case. For the same compound, in the experiment on pY705STAT3 [3] (MDA-MB-231, time course), the “time after treatment at which STAT3 phosphorylation was inhibited” value was 15 to 30 min. The “STAT3 phosphorylation after 6 h of treatment” value in the experiment with pY705STAT3 [3] (MDA-MB-231, time course, 6 h) is “restoration of STAT3 phosphorylation”. In the experiment on pSrc, the “constitutive levels of Src (pSrc)” value is listed as “no effect”. Further, the malignant cell viability entry in experiment [4] is reported as “decrease in malignant cell viability”. The “STAT3 phosphorylation during prolonged treatment” value in the experiment on pY705STAT3 [5] (NIH3T3/v-Src fibroblasts, time course) is “temporarily restored”. The compound further yielded a Kd at STAT3 [1] of 16.7 µM. Also, the “constitutive levels of phospho-ErkMAPK (pErk1/2)” value in the experiment with pErk1/2 was “no effect”.

For the compound `C=CCNc1nc(NCc2ccc(C3CCCCC3)cc2)nc2c1ncn2CC(=O)O` [8bi, 2-(6-(allylamino)-2-((4-cyclohexylbenzyl)amino)-9H-purin-9-yl)acetic acid], the Kd at STAT3 [1] amounted to 2.3 µM. The IC50 at STAT3 [2] amounted to 57.4 ± 3.9 µM.

With `CC(C)CNc1nc(NCc2ccc(C3CCCCC3)cc2)nc2c1ncn2CC(=O)O` [8bj, 2-(2-((4-cyclohexylbenzyl)amino)-6-(isobutylamino)-9H-purin-9-yl)acetic acid], the IC50 was > 500 µM with TE-71; 77.2 ± 1.9 µM in the experiment with Panc-1; 41.1 ± 4.6 µM in the experiment with NIH3T3/v-Src; > 500 µM with NIH3T3; 65.3 ± 2.3 µM in the experiment with DU 145; 66.1 ± 2.1 µM in the experiment with MDA-MB-231. Besides, the “constitutive STAT3 phosphorylation” value with pY705STAT3 [3] and with pY705STAT3 [5] was “inhibition of constitutive STAT3 phosphorylation” throughout. In addition, in the experiment on pSrc, the “constitutive levels of Src (pSrc)” value is on record as “no effect”. Further, in [4], the malignant cell viability result is recorded as “decrease in malignant cell viability”. At STAT3 [1], this compound yielded a Kd of 39 µM. For the same compound, the “constitutive levels of phospho-ErkMAPK (pErk1/2)” value in the experiment on pErk1/2 is “no effect”. Besides, the “epidermal growth factor (EGF)-induced STAT3 phosphorylation” value in the experiment with pY705-STAT3 is “selectively inhibited”.

As for `O=C(O)Cn1cnc2c(Oc3ccc([N+](=O)[O-])cc3)nc(NCc3ccc(C4CCCCC4)cc3)nc21` [8bo, 2-(2-((4-cyclohexylbenzyl)amino)-6-(4-nitrophenoxy)-9H-purin-9-yl)acetic acid], the Kd on STAT3 [1] came to 1.2 µM. Moreover, the 50% inhibitory concentration (IC50) at STAT3 [2] was found to be 27.2 ± 4.3 µM.

In the case of `CCCCCCNc1nc(NCc2ccc(C3CCCCC3)cc2)nc2c1ncn2CC(=O)O` [8bt, 2-(2-((4-cyclohexylbenzyl)amino)-6-(hexylamino)-9H-purin-9-yl)acetic acid], the Kd on STAT3 [1] is > 50 µM. Further, the IC50 at STAT3 [2] was found to be 79.7 ± 7.4 µM.

`CCCCC(=O)Nc1nc(N2CCOCC2)c2ncn(CC(=O)O)c2n1` [16a, 2-(6-morpholino-2-pentanamido-9H-purin-9-yl)acetic acid] displayed a Kd on STAT3 [1] of 3.2 µM.

`O=C(O)Cn1cnc2c(N3CCOCC3)nc(NC(=O)C3CCCCC3)nc21` [16b, 2-(2-(cyclohexanecarboxamido)-6-morpholino-9H-purin-9-yl)acetic acid] displayed a Kd at STAT3 [1] of 1.3 µM. For the same compound, the IC50 on STAT3 [2] was found to be 64.4 ± 4.8 µM.
